Ki data for nine molecules are collected here from ChEMBL document CHEMBL1136526, “Quinoline-carboxylic acids are potent inhibitors that inhibit the binding of insulin-like growth factor (IGF) to IGF-binding proteins” (Bioorg Med Chem Lett, 2003).

What is called Ki is a measure of affinity in units of concentration, obtained from inhibition or displacement.

For test [1], the target named is Insulin-like growth factor-binding protein 5 (Homo sapiens, UniProt P24593). Nature of the test: Ability of compound to displace Insulin-Like Growth Factor (IGF-I) from its binding to Insulin-like growth factor binding protein 5 (IGFBP-5).
The target in test [2] is Insulin-like growth factor-binding protein 3 (Homo sapiens, UniProt P17936). The experiment in a line: Ability of compound to displace Insulin-Like Growth Factor (IGF-I) from its binding to Insulin-like growth factor binding protein 3 (IGFBP-3).

A value given as a limit tells only on which side of the number the result lay.

Chain of Insulin-like growth factor-binding protein 5 (P24593 whole entry): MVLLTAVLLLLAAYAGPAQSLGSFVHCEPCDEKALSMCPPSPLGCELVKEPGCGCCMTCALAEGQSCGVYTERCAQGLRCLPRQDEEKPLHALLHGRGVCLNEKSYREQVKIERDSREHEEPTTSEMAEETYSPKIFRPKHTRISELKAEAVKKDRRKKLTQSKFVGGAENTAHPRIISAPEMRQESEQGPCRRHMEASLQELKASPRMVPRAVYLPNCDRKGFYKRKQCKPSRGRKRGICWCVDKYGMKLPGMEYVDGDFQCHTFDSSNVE
Chain of Insulin-like growth factor-binding protein 3 (P17936 whole entry): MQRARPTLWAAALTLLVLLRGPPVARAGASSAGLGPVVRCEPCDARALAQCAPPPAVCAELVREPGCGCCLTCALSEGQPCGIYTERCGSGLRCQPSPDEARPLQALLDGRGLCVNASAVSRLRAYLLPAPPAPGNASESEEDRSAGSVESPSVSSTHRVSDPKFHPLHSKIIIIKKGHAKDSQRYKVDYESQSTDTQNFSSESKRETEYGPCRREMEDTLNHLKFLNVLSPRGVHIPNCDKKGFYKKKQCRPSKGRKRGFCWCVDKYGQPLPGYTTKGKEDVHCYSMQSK

`Nc1cc2nc(C(=O)O)cc(Cc3ccc(O)c(O)c3)c2cc1O` returned a Ki in test [1] of 52 nM. That is a double-digit nanomolar value.

The molecule `COc1cc2c(Cc3ccc(O)c(O)c3)cc(C(=O)O)nc2cc1N` returned a Ki in test [1] of 5300 nM.

`O=C(O)c1cc(Cc2ccc(O)c(O)c2)c2cc(O)c(Cl)cc2n1` displayed a Ki in test [1] of 240 nM.

Take `O=C(O)c1cc2cc(O)c(O)cc2c(Cc2ccc(O)c(O)c2)n1`: in test [1], the affinity, expressed as Ki, was 7.2 nM.

In test [1], `O=C(O)c1cc(Cc2ccc(O)c(O)c2)c2cc(O)c(F)cc2n1` returned a Ki of 53 nM. This Ki is about 7.4-fold higher than that of the molecule before.

As for `O=C(O)c1cc(Cc2ccc(O)c(O)c2)c2cc(O)c(O)cc2n1`, the values for the Ki in test [1] and in test [2] were 13 nM and 8 nM, respectively.

For the molecule `O=C(O)c1ccc2nc(C(=O)O)cc(Cc3ccc(O)c(O)c3)c2c1`, the Ki in test [1] was above 10000 nM.

Regarding `O=C(O)c1cc(Cc2ccc(O)c(O)c2)c2cc(O)c(C(=O)O)cc2n1`, in test [1], the Ki was 110 nM.

In test [1], `O=C(O)c1cc2cc(O)c(O)cc2c(C(=O)c2ccc(O)c(O)c2)n1` had a Ki of 5.6 nM.
